Source: PMC5967867, “An NMDAR positive and negative allosteric modulator series share a binding site and are interconverted by methyl groups” (eLife, 2018)

How the values were obtained:
diheteromeric NMDARs = assay: Two-electrode voltage-clamp recordings, statements across all diheteromeric NMDARs; type: cell-based, rat
Protocol: cDNAs for rat wild type NMDAR subunits GluN1-1a (GenBank U11418, U08261; hereafter GluN1 or GluN1a), GluN1-1b (U08263, hereafter GluN1b), GluN2A (D13211), GluN2B (U11419), GluN2C (M91563), and GluN2D (L31611, modified as described in [Monyer et al., 1994]) were provided by Drs. S. Heinemann (Salk Institute), S. Nakanishi (Kyoto University), and P. Seeburg (University of Heidelberg). Site-directed mutagenesis was conducted using the QuikChange kit (Agilent Technologies, Santa Clara, CA) following the recommended protocol. DNA sequencing was used to verify all mutations. The amino acid numbering system started with the initiating methionine as residue number one. For expression in Xenopus laevis oocytes, cDNA constructs were linearized by restriction enzymes, and subsequently used to synthesize in vitro cRNAs following the manufacturer’s protocol (mMessage mMachine, Ambion, ThermoFisher Scientific, Waltham, MA).
Xenopus laevis stage VI oocytes (Ecocyte Biosciences, Austin, TX) were injected as previously described ([Hansen et al., 2013]) 2–7 days prior to recording with cRNA encoding the NMDAR subunits and stored at 15°C in media containing (in mM) 88 NaCl, 2.4 NaHCO3, 1 KCl, 0.33 Ca(NO3)2, 0.41 CaCl2, 0.82 MgSO4, 5 Tris-HCl; pH was adjusted to 7.4 with NaOH and the solution supplemented with 1 U/mL penicillin, 0.1 mg/mL gentamicin sulfate, and 1 μg/mL streptomycin. Two-electrode voltage-clamp recordings were performed at room temperature (21–23°C) using different internal solutions for voltage and current electrodes (0.3 M and 3.0 M KCl, respectively). All extracellular solutions were made from a solution containing (in mM) 90 NaCl, 1 KCl, 10 HEPES, 0.5 BaCl2, 0.01 EDTA (pH 7.4 with NaOH). Experiments were performed using an eight port Modular Valve Positioner (Hamilton Company, Reno, NV) and controlled by custom software (Easy Oocyte, Emory University, Atlanta, GA)to exchange solutions. Oocyte currents were recorded at a holding potential of −40 mV using a two-electrode voltage-clamp amplifier (OC-725B or OC-725C, Warner Instruments, Hamden, CT). […]

[1] = Racemization time course of enantiomers in working solution (functional assessment); type: physicochemical; conditions: standard experimental (aqueous working) solution
Excerpt: The enantiomers of EU1794-27 were separated to determine whether the racemic activity reflected the actions of only one enantiomer (see Supplemental methods). (-)-EU1794-27 potentiated NMDAR responses similarly to the racemic mixture (Figure 8—figure supplement 1A, Table 7). […] We previously reported ([Katzman et al., 2015]) that purified enantiomers were likely to racemize in aqueous solutions, which should proceed by a first-order reaction dependent on multiple factors such as ionic strength, pH, buffer, etc. ([Smith et al., 1978]). Thus, to quantitatively determine if racemization would impact our experiments using the enantiomers, we performed a functional assessment of this property in our standard experimental solution. […] Both enantiomers of EU1794-4 inhibited NMDAR responses, but with different potencies (Figure 8—figure supplement 1C, Supplementary File 2). […] All enantiomer studies, other than the racemization time-course, were performed rapidly to minimize any racemization, being completed in less than 80 min after making the aqueous solution of modulator.
Figure 8. The enantiomers of EU1794-4 and EU1794-27 have different action. […] (C) Single concentration competition experiments illustrating an interaction between both enantiomers of EU1794-4 (+and -) and the positive modulating enantiomer of EU1794-27 (-) at GluN1/GluN2D. […] Figure 8—figure supplement 1. […]

SMILES | potency of (-) enantiomer relative to (+) enantiomer (diheteromeric NMDARs; inhibition, across subtypes) | residual current at saturating levels (diheteromeric NMDARs; saturating EU1794-4) | saturated inhibition (diheteromeric NMDARs; saturating modulator and agonist, across NMDAR subtypes) | half-life at 10 µM [1] [h] | melting point
CCOC(=O)c1c(NC(=O)CC2SC(=N)NC2=O)sc2c1CCCC2 (stereo not drawn) [EU1794-4, ethyl 2-(2-(2-imino-4-oxothiazolidin-5-yl)acetamido)-4,5,6,7-tetrahydrobenzo[b]thiophene-3-carboxylate] | 3–10 fold | 30–60% | 40–70 % of control | 3.27 | 163 °C (dec.)
CC(C)(C)OC(=O)c1c(NC(=O)CC2SC(=N)NC2=O)sc2c1CCCC2 (stereo not drawn) [EU1794-27, tert-butyl 2-(2-(2-imino-4-oxothiazolidin-5-yl)acetamido)-4,5,6,7-tetrahydrobenzo[b]thiophene-3-carboxylate] | – | – | – | 3.28 | –
